The record followed here is patent US20230017045A1, “PYRIDINE AND PYRIMIDINE CARBOXYLATE HERBICIDES AND METHODS OF USE THEREOF” (Dow AgroSciences LLC, priority 2017, published 2023).

Read-outs that look alike come from different tables or passages of the source.

The test system of this assay is test plant species. In words: Post-emergent herbicidal activity test (greenhouse, foliar spray, visual growth reduction). The format is in vivo. Particulars: post-emergence, 336 h, 140 g ai/ha. As for the experimental part: Post-emergent Test: Seeds or nutlets of the desired test plant species were planted in Sun Gro Metro-Mix® 360 planting mixture, which typically has a pH of 6.0 to 6.8 and an organic matter content of about 30 percent, in plastic pots with a surface area of 64 square centimeters. In some aspects, to ensure good germination and healthy plants, a fungicide treatment and/or other chemical or physical treatment was applied. The plants were grown for 7-21 d in a greenhouse with an approximate 15 h photoperiod which was maintained at 23-29° C. during the day and 22-28° C. during the night. Nutrients and water were added on a regular basis and supplemental lighting was provided with overhead metal halide 1000-Watt lamps as necessary. Plants were used for testing when they reached the first or second true leaf stage. A weighed amount, determined by the highest rate to be tested, of each test compound was placed in a 25 mL glass vial and was dissolved in 4 mL of a 97:3 v/v mixture of acetone and DMSO to obtain concentrated stock solutions. […] The concentrated stock solutions obtained were diluted with 20 mL of an aqueous mixture containing acetone, water, isopropyl alcohol, DMSO, […] crop oil concentrate, and X-77 surfactant in a 48.5:39:10:1.5:1.0:0.02 v/v ratio to obtain spray solutions containing the application rate. Compound requirements are based upon a 12 mL application volume at a rate of 187 liters per hectare (L/ha). Formulated compounds were applied to the plant material with an overhead Mandel track sprayer equipped with […] nozzles calibrated to deliver 187 L/ha over an application area of 0.64 square meters at a spray height of 18 inches (43 cm) above the average plant canopy height. Control plants were sprayed in the same manner with the solvent blank. The treated plants and control plants were placed in a greenhouse as described above and watered by subirrigation to prevent wash-off of the test compounds. After 14 d, the condition of the test plants as compared with that of the nontreated and control plants was determined visually and scored on a scale of 0 to 100 percent where 0 corresponds to no injury and 100 corresponds to complete control. In the reporting of the results, Table A: Percent Growth Reduction Conversion Table was used.

[1] abbreviates: ALOMY: blackgrass (Alopecurus myosuroides), 14 days after application, read-out: Visual Growth Reduction (%) 14 Days After Application, ALOMY.
Where [2] appears, read: AMARE: redroot pigweed (Amaranthus retroflexus), 14 days after application, read-out: Visual Growth Reduction (%) 14 Days After Application, AMARE.
Setting [3] is: AVEFA: wild oat (Avena fatua), 14 days after application, read-out: Visual Growth Reduction (%) 14 Days After Application, AVEFA.
Setting [4] is: CHEAL: lambsquarters (Chenopodium album), 14 days after application, read-out: Visual Growth Reduction (%) 14 Days After Application, CHEAL.
Setting [5] is: CIRAR: canada thistle (Cirsium arvense), 14 days after application, read-out: Visual Growth Reduction (%) 14 Days After Application, CIRAR.
[6] abbreviates: CYPES: yellow nutsedge (Cyperus esculentus), 14 days after application, read-out: Visual Growth Reduction (%) 14 Days After Application, CYPES.
[7] abbreviates: DIGSA: crabgrass (Digitaria sanguinalis), 14 days after application, read-out: Visual Growth Reduction (%) 14 Days After Application, DIGSA.
[8] abbreviates: barnyardgrass (Echinochloa crus-galli), 14 Days After Application, read-out: Visual Growth Reduction (%) ECHCG.
[9] abbreviates: common chickweed (Stellaria media), 14 Days After Application, read-out: Visual Growth Reduction (%) STEME.
[10] abbreviates: giant foxtail (Setaria faberi), 14 Days After Application, read-out: Visual Growth Reduction (%) SETFA.
[11] abbreviates: ivy-leaf morning glory (Ipomoea hederacea), 14 Days After Application, read-out: Visual Growth Reduction (%) IPOHE.
[12] abbreviates: johnsongrass (Sorghum vulgare), 14 Days After Application, read-out: Visual Growth Reduction (%) SORVU.
Setting [13] is: kochia (Bassia scoparia), 14 Days After Application, read-out: Visual Growth Reduction (%) KCHSC.
The mark [14] stands for this setting: rice (Oryza sativa), 14 Days After Application, read-out: Visual Growth Reduction (%) ORYSA.
Where [15] appears, read: wheat, spring (Triticum aestivum), 14 Days After Application, read-out: Visual Growth Reduction (%) TRZAS.

In the case of `COC(=O)c1nc(-c2ccc(C3CC3)cc2Cl)ccc1Cl` [F15, methyl 3-chloro-6-(2-chloro-4-cyclopropylphenyl)picolinate], the pest or weed control at 140 g/ha lay in the range of 0 to 29% under setting [1]; 30 to 44% under setting [2]; 0 to 29% under setting [3]; 45 to 59% under setting [4]; 0 to 29% under setting [5]; 30 to 44% under setting [6]. The pest or weed control at 140 g/ha under setting [7] was 0 to 29%; the pest or weed control at 140 g/ha under setting [8] fell in the range of 0 to 29%; the pest or weed control at 140 g/ha under setting [9] lay in the range of 0 to 29%; the pest or weed control at 140 g/ha under setting [10] was 0 to 29%; the pest or weed control at 140 g/ha under setting [11] was in the range of 95 to 100%; the pest or weed control at 140 g/ha under setting [12] was 0 to 29%. Also, the pest or weed control at 140 g/ha by setting is: under setting [13], 0 to 29%; under setting [14], 0 to 29%; under setting [15], 0 to 29%.
Consider `C#Cc1cc(C(F)(F)F)ccc1-c1ccc(Cl)c(C(=O)OC)n1` [F16, methyl 3-chloro-6-(2-ethynyl-4-(trifluoromethyl)phenyl) picolinate], for which the pest or weed control at 140 g/ha runs as follows: under setting [1], 0 to 29%; under setting [2], 30 to 44%; under setting [3], 0 to 29%; under setting [4], 0 to 29%; under setting [5], 30 to 44%; under setting [6], 0 to 29%. Moreover, the pest or weed control at 140 g/ha runs as follows: under setting [7], 0 to 29%; under setting [8], 0 to 29%; under setting [9], 0 to 29%; under setting [10], 0 to 29%; under setting [11], 95 to 100%; under setting [12], 75 to 84%. For the same molecule, the pest or weed control at 140 g/ha by setting is: under setting [13], 0 to 29%; under setting [14], 0 to 29%; under setting [15], 0 to 29%.
For `COC(=O)c1nc(-c2ccc(C(F)(F)F)cc2C(F)(F)F)ccc1Cl` [F17, Methyl 6-(2,4-bis(trifluoromethyl)phenyl)-3-chloropicolinate], the pest or weed control at 140 g/ha is, setting by setting: under setting [1], 0 to 29%; under setting [2], 60 to 74%; under setting [3], 0 to 29%; under setting [4], 60 to 74%; under setting [5], 0 to 29%; under setting [6], 0 to 29%. Besides, the pest or weed control at 140 g/ha reads like this: under setting [7], 45 to 59%; under setting [8], 0 to 29%; under setting [9], 0 to 29%; under setting [10], 0 to 29%; under setting [11], 95 to 100%; under setting [12], 85 to 94%. The pest or weed control at 140 g/ha is, setting by setting: under setting [13], 0 to 29%; under setting [14], 0 to 29%; under setting [15], 0 to 29%.
For the molecule `C#Cc1ccc(-c2ccc(Cl)c(C(=O)OC)n2)c(Cl)c1` [F18, Methyl 3-chloro-6-(2-chloro-4-ethynylphenyl) picolinate], the pest or weed control at 140 g/ha by setting is: under setting [1], 0 to 29%; under setting [2], 0 to 29%; under setting [3], 0 to 29%; under setting [4], 0 to 29%; under setting [5], 0 to 29%; under setting [6], 0 to 29%. The pest or weed control at 140 g/ha is, setting by setting: under setting [7], 0 to 29%; under setting [8], 0 to 29%; under setting [9], 0 to 29%; under setting [10], 0 to 29%; under setting [11], 0 to 29%; under setting [12], 0 to 29%. In addition, the pest or weed control at 140 g/ha runs as follows: under setting [13], 0 to 29%; under setting [14], 0 to 29%; under setting [15], 0 to 29%.
With `COC(=O)c1nc(-c2ccc(C(F)F)cc2Cl)ccc1Cl` [F19, methyl 3-chloro-6-(2-chloro-4-(difluoromethyl)phenyl)picolinate], the pest or weed control at 140 g/ha by setting is: under setting [1], 0 to 29%; under setting [2], 95 to 100%; under setting [3], 0 to 29%; under setting [4], 95 to 100%; under setting [5], 95 to 100%; under setting [6], 30 to 44%. Further, the pest or weed control at 140 g/ha under setting [7] was in the range of 0 to 29%; the pest or weed control at 140 g/ha under setting [8] was 0 to 29%; the pest or weed control at 140 g/ha under setting [9] was 0 to 29%; the pest or weed control at 140 g/ha under setting [10] is 0 to 29%; the pest or weed control at 140 g/ha under setting [11] was 95 to 100%; the pest or weed control at 140 g/ha under setting [12] was in the range of 30 to 44%. For the same molecule, the pest or weed control at 140 g/ha reads like this: under setting [13], 85 to 94%; under setting [14], 0 to 29%; under setting [15], 0 to 29%.
As for `COC(=O)c1nc(-c2ccc(/C=N/N(C)C)cc2Cl)ccc1Cl` [F20, methyl 3-chloro-6-(2-chloro-4-((2,2-dimethylhydrazono)methyl)phenyl) picolinate], the pest or weed control at 140 g/ha lay within 0 to 29% under setting [1]; 0 to 29% under setting [2]; 0 to 29% under setting [3]; 0 to 29% under setting [4]; 0 to 29% under setting [5]; 0 to 29% under setting [6]. Besides, the pest or weed control at 140 g/ha reads like this: under setting [7], 0 to 29%; under setting [8], 0 to 29%; under setting [9], 0 to 29%; under setting [10], 0 to 29%; under setting [11], 60 to 74%; under setting [12], 0 to 29%. In addition, the pest or weed control at 140 g/ha under setting [13] was 0 to 29%, the pest or weed control at 140 g/ha under setting [14] was in the range of 0 to 29% and the pest or weed control at 140 g/ha under setting [15] was 0 to 29%.
In the case of `CO/N=C/c1ccc(-c2ccc(Cl)c(C(=O)OC)n2)c(Cl)c1` [F21, methyl 3-chloro-6-(2-chloro-4-((methoxyimino)methyl)phenyl)picolinate], the pest or weed control at 140 g/ha lay in the range of 0 to 29% under setting [1]; 0 to 29% under setting [2]; 0 to 29% under setting [3]; 0 to 29% under setting [4]; 0 to 29% under setting [5]; 0 to 29% under setting [6]. Moreover, the pest or weed control at 140 g/ha under setting [7] lay in the range of 0 to 29%; the pest or weed control at 140 g/ha under setting [8] fell in the range of 0 to 29%; the pest or weed control at 140 g/ha under setting [9] is 0 to 29%; the pest or weed control at 140 g/ha under setting [10] is 0 to 29%; the pest or weed control at 140 g/ha under setting [11] is 0 to 29%; the pest or weed control at 140 g/ha under setting [12] lay in the range of 0 to 29%. The pest or weed control at 140 g/ha reads like this: under setting [13], 0 to 29%; under setting [14], 0 to 29%; under setting [15], 0 to 29%.
